# Reference: patent US9725449B2, “Tricyclic compounds as anticancer agents” (BRISTOL-MYERS SQUIBB COMPANY, priority 2015, dated 2017)
# Target: BRD4 (Homo sapiens, UniProt O60885)
# Assay: Time resolved fluorescence resonance energy transfer (TR-FRET) binding assay, bromodomain BRD4
# Details: one of the FRET assays described; read-out: FRET BRD4 IC50
row,SMILES,IC50 [nM]
1,"Cc1nnn(C)c1-c1cnc2c3ccc(N4CC5CC4CS5(=O)=O)nc3n([C@H](c3ccccc3)C3CCOCC3)c2c1 (stereo partly drawn) [Example 214, 5-[5-(Dimethyl-1H-1,2,3-triazol-5-yl)-8-[(S)-oxan-4-yl(phenyl)methyl]-3,8,10-triazatricyclo[7.4.0.0^2,^7]trideca-1(9),2(7),3,5,10,12-hexaen-11-yl]-2λ^6-thia-5-azabicyclo[2.2.1]heptane-2,2-dione]",< 1
2,"COc1ncc(C(=O)N2CC(F)C2)c2c1c1ncc(-c3c(C)nnn3C)cc1n2[C@H](c1ccccc1)C1CCOCC1 [Example 137, 5-(dimethyl-1H-1,2,3-triazol-5-yl)-10-(3-fluoroazetidine-1-carbonyl)-13-methoxy-8-[(S)-oxan-4-yl(phenyl)methyl]-3,8,12-triazatricyclo[7.4.0.0^2,^7]trideca-1(9),2,4,6,10,12-hexaene]",< 10
3,"Cc1cccnc1C(C1CCOCC1)n1c2cc(-c3c(C)nnn3C)ncc2c2ncc(C(C)(C)O)cc21 (single isomer, unassigned) [Example 374]",< 10
4,"COc1nccc2c3ncc(-c4c(C)nnn4C)cc3n(C(c3cc(F)ccc3F)C3CCOCC3)c12 (racemic) [Example 26, 8-[(2,5-Difluorophenyl)(oxan-4-yl)methyl]-5-(dimethyl-1H-1,2,3-triazol-5-yl)-10-methoxy-3,8,11-triazatricyclo[7.4.0.0^2,^7]trideca-1(13),2(7),3,5,9,11-hexaene]",< 10
5,"C=C(OCC)c1cc2c(cn1)c1ncc(-c3c(C)noc3C)cc1n2[C@H](c1ccc(F)cc1)C1CCOCC1 [Example 329, 5-(Dimethyl-1,2-oxazol-4-yl)-11-(1-ethoxyethenyl)-8-[(S)-(4-fluorophenyl)(oxan-4-yl)methyl]-3,8,12-triazatricyclo[7.4.0.0^2,^7]trideca-1(9),2(7),3,5,10,12-hexaene]",< 10
6,"COc1ncc(S(C)(=O)=O)c2c1c1ncc(-c3c(C)nnn3C)cc1n2C(c1ccccc1)C1CCC(F)(F)CC1 (single isomer, unassigned) [Example 90, 8-[(4,4-Difluorocyclohexyl)(phenyl)methyl]-5-(dimethyl-1H-1,2,3-triazol-5-yl)-10-methanesulfonyl-13-methoxy-3,8,12-triazatricyclo[7.4.0.0^2,^7]trideca-1(13),2(7),3,5,9,11-hexaene]",< 10
7,"Cc1nnn(C)c1-c1cnc2c3c(NCC4CC4)ncc(Cl)c3n([C@H](c3ccccc3)C3CCOCC3)c2c1 [Example 44, 10-Chloro-N-(cyclopropylmethyl)-5-(dimethyl-1H-1,2,3-triazol-5-yl)-8-[(S)-oxan-4-yl(phenyl)methyl]-3,8,12-triazatricyclo[7.4.0.0^2,^7]trideca-1(13),2(7),3,5,9,11-hexaen-13-amine]",< 10
8,"[2H]C([2H])([2H])c1nnn(C)c1-c1cc2c(cn1)c1ncc(C(C)(C)O)cc1n2C(c1ncccc1F)C1CCOCC1 (single isomer, unassigned) [Example 367]",< 10
9,"COc1nnn(C)c1-c1cnc2c3cnc(N4C[C@@H](C)S(=O)(=O)[C@H](C)C4)nc3n([C@H](c3ccccc3)C3CCOCC3)c2c1 [Example 158, (2R,6R)-4-[5-(4-Methoxy-1-methyl-1H-1,2,3-triazol-5-yl)-8-[(S)-oxan-4-yl(phenyl)methyl]-3,8,10,12-tetraazatricyclo[7.4.0.0^2,^7]trideca-1(9),2(7),3,5,10,12-hexaen-11-yl]-2,6-dimethyl-1λ^6,4-thiomorpholine-1,1-dione]",< 10
10,"Cc1nnn(C)c1-c1cnc2c3ccc(N4CCS(=O)(=O)CC4)nc3n([C@H](c3ccccc3)C3CCOCC3)c2c1 [Example 182, 4-[5-(Dimethyl-1H-1,2,3-triazol-5-yl)-8-[(S)-oxan-4-yl(phenyl)methyl]-3,8,10-triazatricyclo[7.4.0.0^2,^7]trideca-1(9),2(7),3,5,10,12-hexaen-11-yl]-1,4-thiomorpholine-1,1-dione]",< 1
11,"Cc1nnn(C)c1-c1cnc2c3ccc(NS(C)(=O)=O)nc3n([C@H](c3ccccc3)C3CCOCC3)c2c1 [Example 208, N-[5-(Dimethyl-1H-1,2,3-triazol-5-yl)-8-[(S)-oxan-4-yl(phenyl)methyl]-3,8,10-triazatricyclo[7.4.0.0^2,^7]trideca-1(9),2(7),3,5,10,12-hexaen-11-yl]methanesulfonamide]",< 10
12,"Cc1nnn(C)c1-c1cnc2c3ccc(N4CCS(=O)(=O)CC4C)nc3n([C@H](c3ccccc3)C3CCOCC3)c2c1 (stereo partly drawn) [Example 210, 4-[5-(Dimethyl-1H-1,2,3-triazol-5-yl)-8-[(S)-oxan-4-yl(phenyl)methyl]-3,8,10-triazatricyclo[7.4.0.0^2,^7]trideca-1(9),2(7),3,5,10,12-hexaen-11-yl]-3-methyl-1λ^6,4-thiomorpholine-1,1-dione]",< 10
13,"Cc1nnn(C)c1-c1cnc2c3cnc(C#N)nc3n([C@H](c3ccccc3)C3CCOCC3)c2c1 [Example 143, 5-(Dimethyl-1H-1,2,3-triazol-5-yl)-8-[(S)-oxan-4-yl(phenyl)methyl]-3,8,10,12-tetraazatricyclo[7.4.0.0^2,^7]trideca-1(9),2(7),3,5,10,12-hexaene-11-carbonitrile]",< 1500
14,"COc1nccc2c3ncc(-c4c(C)nnn4C)cc3n(C(c3ccc(F)cc3F)C3CCOCC3)c12 (racemic) [Example 25, 8-[(2,4-Difluorophenyl)(oxan-4-yl)methyl]-5-(dimethyl-1H-1,2,3-triazol-5-yl)-10-methoxy-3,8,11-triazatricyclo[7.4.0.0^2,^7]trideca-1(13),2(7),3,5,9,11-hexaene]",< 10
15,"Cc1nnn(C)c1-c1cnc2c3ccc(N4CC(C)S(=O)(=O)C(C)C4)nc3n([C@H](c3ccccc3)C3CCOCC3)c2c1 (single isomer, unassigned) [Example 191]",< 1
16,"Cc1nnn(C)c1-c1cnc2c3ccc(N4CCS(=O)(=O)C(C)C4)nc3n(C(c3ccccc3)C3CCOCC3)c2c1 [Example 217, 4-[5-(Dimethyl-1H-1,2,3-triazol-5-yl)-8-[(S)-oxan-4-yl(phenyl)methyl]-3,8,10-triazatricyclo[7.4.0.0^2,^7]trideca-1(9),2(7),3,5,10,12-hexaen-11-yl]-2-methyl-1λ^6,4-thiomorpholine-1,1-dione]",< 10
17,"Cc1nnn(C)c1-c1cnc2c3ccnc(N4CCN(C)CC4)c3n([C@H](c3ccccc3)C3CCOCC3)c2c1 [Example 8, 5-(Dimethyl-1H-1,2,3-triazol-5-yl)-10-(4-methylpiperazin-1-yl)-8-[(S)-oxan-4-yl(phenyl)methyl]-3,8,11-triazatricyclo[7.4.0.0^2,^7]trideca-1(13),2(7),3,5,9,11-hexaene]",< 10
18,"[2H]C([2H])([2H])c1nnn(C)c1-c1cnc2c3c(OC(C)C)ncc(S(C)(=O)=O)c3n([C@H](c3ccc(F)cc3)C3CCOCC3)c2c1 [Example 79, 8-[(S)-(4-Fluorophenyl)(oxan-4-yl)methyl]-10-methanesulfonyl-5-[4-(^2H3)methyl-1-methyl-1H-1,2,3-triazol-5-yl]-13-(propan-2-yloxy)-3,8,12-triazatricyclo[7.4.0.0^2,^7]trideca-1(13),2(7),3,5,9,11-hexaene]",< 1
